US20080070971A1, “Medical Use of Bilirubin and its Structural Analogues” (priority 2006, published 2008)

Columns and labels:
[1] = target: T1, isocitrate dehydrogenase (ICDH) (Sus scrofa, UniProt P33198); experiment: Isocitrate dehydrogenase inhibition; assay type: biochemical; settings: concentration equivalent to the moderate level of serum bilirubin (FIG. 7)
T1 construct: purchased SigmaAldrich I2516
T1 sequence (P33198 9-421): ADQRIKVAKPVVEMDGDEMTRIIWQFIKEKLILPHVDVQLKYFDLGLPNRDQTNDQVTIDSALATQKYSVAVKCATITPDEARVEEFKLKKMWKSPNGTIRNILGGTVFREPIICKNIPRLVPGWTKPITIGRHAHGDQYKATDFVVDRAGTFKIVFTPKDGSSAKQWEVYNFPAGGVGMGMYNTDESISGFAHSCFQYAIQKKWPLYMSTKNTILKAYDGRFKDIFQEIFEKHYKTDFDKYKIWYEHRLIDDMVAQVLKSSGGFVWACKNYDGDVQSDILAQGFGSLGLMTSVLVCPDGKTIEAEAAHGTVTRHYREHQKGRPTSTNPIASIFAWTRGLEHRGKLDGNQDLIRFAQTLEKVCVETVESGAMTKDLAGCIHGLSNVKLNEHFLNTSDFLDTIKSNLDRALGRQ
Description: NAD (Cat.#N1511), NADH (Cat. N9410), NADP (Cat.#N8610) and NADPG (Cat. #N7505), HMG-CoA (Cat.#H6132) were purchased from Sigma Aldrich (St. Louis, Mo.). NADP-linked isocitrate dehydrogenase was also obtained from SigmaAldrich (Cat.#I2516). Other liver enzymes were prepared as follows.

acetylcholinesterase = target: T2, acetylcholinesterase (Homo sapiens, UniProt P22303); experiment: Acetylcholinesterase activity by choline release; assay type: biochemical; settings: at high bilirubin concentrations (FIG. 2)
T2 construct: purchased SigmaAldrich C0663
T2 sequence (P22303 32-617 isoform P22303-2 limits assumed): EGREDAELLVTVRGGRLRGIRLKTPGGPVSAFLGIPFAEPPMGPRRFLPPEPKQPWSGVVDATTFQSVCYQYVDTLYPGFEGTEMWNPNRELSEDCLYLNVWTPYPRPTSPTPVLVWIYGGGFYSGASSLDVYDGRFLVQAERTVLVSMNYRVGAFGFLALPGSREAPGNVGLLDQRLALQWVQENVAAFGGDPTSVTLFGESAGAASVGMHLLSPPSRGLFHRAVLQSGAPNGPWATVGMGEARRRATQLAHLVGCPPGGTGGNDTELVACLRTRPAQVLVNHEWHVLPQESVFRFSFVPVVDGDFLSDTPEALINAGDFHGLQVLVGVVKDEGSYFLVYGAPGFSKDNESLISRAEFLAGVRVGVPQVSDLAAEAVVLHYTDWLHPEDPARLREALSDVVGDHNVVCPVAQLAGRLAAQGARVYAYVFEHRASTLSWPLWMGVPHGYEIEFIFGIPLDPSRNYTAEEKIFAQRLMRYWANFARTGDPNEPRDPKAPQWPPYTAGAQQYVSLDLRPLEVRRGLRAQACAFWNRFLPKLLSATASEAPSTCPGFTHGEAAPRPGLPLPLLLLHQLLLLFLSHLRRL
Description: Since bilirubin itself gives an absorption peak at 460 nm, which interferes with the cholinesterase assay procedures in many standard assay kits, a modified method was developed. The acetylcholinesterase activity was determined by measuring the quantity of choline release from acetylcholine:
Briefly, after 30 minutes reaction in the above acetylcholine-enzyme solution at pH=7.8, in the absence or presence of bilirubin, the reaction was stopped by heating to about 100° C. in boiling water. The solution was then cooled down to 37° C. Residual bilirubin was neutralized by titrating with H2O2. The amount of choline was then determined by the following choline oxidase assay method provided by SigmaAldrich (Cat.# C5896): […]

cyclooxygenase (COX) = experiment: Cyclooxygenase (COX) inhibition; assay type: biochemical, human
Description: The activity of COX was determined by the procedure described in Assay Design's Enzyme Immunometric Assay (EIA) kit (Assay Design Inc., TiterZyme EIA cat.#900-094). Briefly, the kit uses a monoclonal antibody to human COX-II immobilized on a microtiter plate to bind the human COX in the standard or sample. After a short incubation the excess standard or sample is washed out and a rabbit polyclonal antibody to human COX labeled with the enzyme. Horseradish peroxidase is added. This labeled antibody binds to the human COX captured on the plate. After a short incubation the excess labeled antibody is washed out and substrate is added. The substrate reacts with the labeled antibody bound to the human COX captured on the plate. After a short incubation, the enzyme reaction is stopped and the color generated is read at 450 nm. The measured optical density is directly proportional to the concentration of human COX.
Purified cyclooxygenases (COX) were obtained from Kayman Chemical Company and used to examine the inhibitory effect of bilirubin with arachidonic acid as the substrate. High purity of bilirubin (SigmaAldrich #B4126), biliverdin (Frontier Scientific Inc., Cat. B655-9) and hemin (SigmaAldrich, #51280) were used as received.

[2] = target: T3, cholesterol esterase (CHE) (Homo sapiens, UniProt P19835); experiment: Cholesterol esterase inhibition; assay type: biochemical; settings: bilirubin concentration of about 10 mg/L; pH=7.2 (FIG. 1)
T3 sequence (P19835 21-753): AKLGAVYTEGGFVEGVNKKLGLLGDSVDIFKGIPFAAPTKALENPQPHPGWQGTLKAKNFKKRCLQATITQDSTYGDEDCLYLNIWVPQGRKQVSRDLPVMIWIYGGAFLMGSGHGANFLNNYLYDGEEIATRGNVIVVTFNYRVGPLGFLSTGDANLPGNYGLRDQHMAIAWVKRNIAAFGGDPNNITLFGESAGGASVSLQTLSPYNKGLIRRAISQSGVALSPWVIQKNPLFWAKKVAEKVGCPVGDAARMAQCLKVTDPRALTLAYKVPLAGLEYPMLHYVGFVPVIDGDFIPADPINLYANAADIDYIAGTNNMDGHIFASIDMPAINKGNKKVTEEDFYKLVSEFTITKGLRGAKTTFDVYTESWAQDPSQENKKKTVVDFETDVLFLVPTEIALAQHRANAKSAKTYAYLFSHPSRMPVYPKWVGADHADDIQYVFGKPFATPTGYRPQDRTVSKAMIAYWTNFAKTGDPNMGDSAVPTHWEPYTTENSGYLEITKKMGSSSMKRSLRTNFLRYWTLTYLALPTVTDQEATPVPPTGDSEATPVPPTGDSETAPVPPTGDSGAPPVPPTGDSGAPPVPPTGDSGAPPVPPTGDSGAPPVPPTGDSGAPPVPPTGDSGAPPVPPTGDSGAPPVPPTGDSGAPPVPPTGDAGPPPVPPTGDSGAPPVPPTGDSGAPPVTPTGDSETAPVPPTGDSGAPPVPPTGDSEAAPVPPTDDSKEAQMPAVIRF

[3] = system: histone deacetylase (HDAC), HeLa cell lysate; experiment: Histone deacetylase (HDAC) assay; assay type: biochemical
Description: Assay of histone decaetylase (HDAC). The activity of HDAC was measured according to the procedure provided by SigmaAldrich (Histone Deacetylase Assay Kit, Cat.# CS1010). HeLa cel lysate provided by the assay kit was used as a source for HDAC activity in the inhibition testing.

In the case of C=CC1=C(C)C(=Cc2[nH]c(Cc3[nH]c(C=C4NC(=O)C(C)=C4C=C)c(C)c3CCC(=O)O)c(CCC(=O)O)c2C)NC1=O [bilirubin, 2,7,13,17-tetramethyl-1,19-dioxo-3,18-divinyl-1,10,19,22,23,24-hexahydro-21H-biline-8,12-dipropanoic acid], the “inhibition of isocitrate dehydrogenase” value [1] is reported as “strongly suppressed”, the acetylcholinesterase activity (acetylcholinesterase) is reported as “completely eliminated” and the “inhibition of the COX activity” value (cyclooxygenase (COX); 10 mg/L bilirubin (FIG. 3)) is reported as “Up to 70%”. The “reducing COX activity (comparison)” value (cyclooxygenase (COX); concentration of 10 mg/L (FIG. 4)) was “effective in reducing COX activity”, the inhibition at 10 µg/mL [2] was about 50% and the “50% inhibition concentration (IC50)” value ([3]; substrate concentration 5 μM) was 16.5 µg/mL. For the same molecule, the “50% inhibition concentration (IC50)” value ([3]; substrate concentration 50 μM) was 40 µg/mL.
